Results on 9 molecules are retold here after patent publication US7217704B2, “LPA receptor agonists and antagonists and methods of use” (The University of Tennessee Research Foundation, priority 2003, dated 2007).

Structures are written as SMILES. pEC50, pIC50, pKi: −log10 of the molar value. Entries after “also recorded” stand apart in the source; their conditions may differ. Where two headings read alike, the source gives them in different places.

Assay [1] addresses T1, LPA3 (Homo sapiens, UniProt Q9UBY5).
T1 construct: expressed in transfected cells
T1 sequence (Q9UBY5 1-353): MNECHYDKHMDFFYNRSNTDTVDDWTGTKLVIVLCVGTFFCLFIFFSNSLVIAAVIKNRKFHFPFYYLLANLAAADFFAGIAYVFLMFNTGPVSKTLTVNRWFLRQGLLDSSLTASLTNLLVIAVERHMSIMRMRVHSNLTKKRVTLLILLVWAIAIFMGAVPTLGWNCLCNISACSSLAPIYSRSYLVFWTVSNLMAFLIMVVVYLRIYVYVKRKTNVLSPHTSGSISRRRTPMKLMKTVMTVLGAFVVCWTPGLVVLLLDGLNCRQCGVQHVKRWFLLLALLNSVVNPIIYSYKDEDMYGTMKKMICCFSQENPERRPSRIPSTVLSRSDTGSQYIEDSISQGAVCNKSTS
Description: Ca2+ transients (agonism / inhibition of LPA response) in RH7777 cells stably expressing LPA3. As to conditions: for pIC50 / pKi: inhibition of LPA-induced Ca2+ transients; for pIC50: read-out: LPA3 IC50; for pKi: read-out: LPA3 (Ki). The class given is cell-based. Here is the method: (§1) The culture medium (DMEM containing 10% FBS) was then replaced with modified Krebs solution (120 mM NaCl, 5 mM KCl, 0.62 mM MgSO4, 1.8 mM CaCl2, 10 mM HEPES, 6 mM glucose, pH 7.4) and the cells were serum starved for 6–8 hours (12 h for PC-3 cells). Cells were loaded with Fura-2 AM for 35 minutes in modified Krebs medium. The Fura-2 was removed before loading the plate in the FlexStation instrument by replacing the medium once again with 100 μl modified Krebs medium/well. Plates were incubated for 4 minutes in the instrument to allow for warming to 37° C. Changes in intracellular Ca^2+ concentration were monitored by measuring the ratio of emitted light intensity at 520 nm in response to excitation by 340 nm and 380 nm wavelength lights, respectively. Each well was monitored for 80–120 seconds. […] Time courses were recorded using the SoftMax Pro software (Molecular Devices, Sunnyvale, Calif.). Ca^2+ transients were quantified automatically by calculating the difference between maximum and baseline ratio values for each well.
(§2) Each FAP analog was tested for the ability to induce Ca^2+ transients in RH7777 cells transfected with LPA1-3 receptors (agonism), as well as the ability to inhibit LPAinduced Ca^2+ transients in the same cells (antagonism) (Table 3).

The target in assay [2] is T2, LPA2 (Homo sapiens, UniProt Q9HBW0).
T2 construct: expressed in transfected cells
The experiment in a line: Ca2+ transients (agonism / inhibition of LPA response) in RH7777 cells stably expressing LPA2. The class given is cell-based. As to conditions: for pEC50: read-out: LPA2 EC50. Here is the method:
as §1, §2

The test system of assay [3] is PC-3 cells. Description: Ca2+ transients in PC-3 cells endogenously expressing LPA1-3. The class given is cell-based, human. Here is the method: as §1
We tested the FAP analogs in PC-3 cells, which unlike the transfected RH7777 cells endogenously express LPA1-3 receptors.

Assay [4] concerns the target T3, LPA1 (Homo sapiens, UniProt Q92633).
T3 construct: expressed in transfected cells
Description: Ca2+ transients (agonism / inhibition of LPA response) in RH7777 cells stably expressing LPA1. In kind it is cell-based. The method, then:
as §1, §2

The mark [5] stands for this setting: induction of Ca2+ transients, RH7777 cells expressing LPA3, read-out: LPA3 EC50.
The mark [6] stands for this setting: induction of Ca2+ transients, RH7777 cells expressing LPA2.
The mark [7] stands for this setting: inhibition of LPA-induced Ca2+ transients, RH7777 cells expressing LPA2, read-out: LPA2 IC50.
Setting [8] is: induction of Ca2+ transients, RH7777 cells expressing LPA1, read-out: LPA1 EC50.
[9] abbreviates: inhibition of LPA-induced Ca2+ transients, RH7777 cells expressing LPA1, read-out: LPA1 IC50.
The mark [10] stands for this setting: Homo sapiens, PC-3, read-out: PC-3 IC50.
Where [11] appears, read: inhibition of LPA-induced Ca2+ transients, PC-3 cells.
[12] abbreviates: RH7777, maximal efficacy of the drug/maximal efficacy of LPA 18:1, read-out: LPA2 (Emax).

T2 sequence (Q9HBW0 whole entry): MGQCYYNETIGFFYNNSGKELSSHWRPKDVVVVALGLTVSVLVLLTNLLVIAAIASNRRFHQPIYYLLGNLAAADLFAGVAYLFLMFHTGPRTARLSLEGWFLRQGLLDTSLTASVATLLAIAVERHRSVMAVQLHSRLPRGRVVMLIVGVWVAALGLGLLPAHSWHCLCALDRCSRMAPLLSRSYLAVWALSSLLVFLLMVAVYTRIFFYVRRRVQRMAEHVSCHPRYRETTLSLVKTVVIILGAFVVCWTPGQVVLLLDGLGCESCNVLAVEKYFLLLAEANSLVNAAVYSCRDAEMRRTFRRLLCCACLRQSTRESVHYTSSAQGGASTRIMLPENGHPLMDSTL
T3 sequence (Q92633 whole entry): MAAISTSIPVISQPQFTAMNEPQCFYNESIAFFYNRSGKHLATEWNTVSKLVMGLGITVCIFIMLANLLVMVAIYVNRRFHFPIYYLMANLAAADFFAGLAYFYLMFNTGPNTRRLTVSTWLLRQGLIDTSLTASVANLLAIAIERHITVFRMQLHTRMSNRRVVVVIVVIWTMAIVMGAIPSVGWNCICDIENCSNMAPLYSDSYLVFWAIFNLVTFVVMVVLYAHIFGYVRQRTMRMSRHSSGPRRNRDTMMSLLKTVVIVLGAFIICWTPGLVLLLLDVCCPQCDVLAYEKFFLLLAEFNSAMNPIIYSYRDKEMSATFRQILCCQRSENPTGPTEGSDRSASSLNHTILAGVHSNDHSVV

In the case of `CCCCCCCCC=CCCCCCCCCOP(=O)(O)O` [Compound 5f, Phosphoric acid monooctadec-9-enyl ester], the “effect at LPA3 in words” value in assay [1] (Ca2+ transients, RH7777 cells expressing LPA3) was “did not inhibit nor did it activate Ca^2+ mobilization; also recorded: potentiated LPA response”. For the same molecule, the pEC50 in assay [1] (setting [5]), in assay [2] (setting [6]) and in assay [4] (setting [8]) was under 4.52 each time. Also, the pIC50 in assay [1] (RH7777 cells expressing LPA3), in assay [2] (setting [7]) and in assay [4] (setting [9]) was under 4.52 throughout. The maximal response (Emax) in assay [3] (Homo sapiens, PC-3, maximal efficacy of the drug/maximal efficacy of LPA 18:1, read-out: PC-3 (Emax)) came out at 11%. The “effect at LPA1 in words” value in assay [4] (Ca2+ transients, RH7777 cells expressing LPA1) is on record as “did not inhibit nor did it activate Ca^2+ mobilization; also recorded: potentiated LPA response”.
Turning to `CCCCCCCCOC[C@@H](COP(O)(O)=S)OCCCCCCCC` [(S) enantiomer], in assay [4] (for 200 nM LPA, formula (VII)A enantiomer, method not stated at b93, read-out: IC50 for LPA1), the pIC50 is 6.74.
In the case of `C=CCCCCCCCCOP(O)(O)=S` [Compound 8d, Thiophosphoric acid O-dec-9-enyl ester], the negative-log EC50 (pEC50) in assay [1] and in assay [4] was under 4.52 throughout. For the same molecule, the results for the negative-log Ki (pKi) in assay [1] (RH7777 cells expressing LPA3) and in assay [3] (setting [11]) were 6.89 and 6.27, respectively. Moreover, the pIC50 in assay [1] (RH7777 cells expressing LPA3) was 6.47; in assay [2], under 4.52; in assay [3] (setting [10]) it was 6.00; in assay [4] it was under 4.52. Moreover, in assay [2] (RH7777, read-out: LPA2 (Emax)), the Emax was 56%.
As for `CCCCC=CCCCCCCCCOP(=O)(O)O` [Compound 5d, Phosphoric acid monotetradec-9-enyl ester], the figures for the negative logarithm of the EC50 (pEC50) in assay [1] (setting [5]) and in assay [2] (setting [6]) were under 4.52 and 6.40, respectively. Also, the values for the negative-log Ki (pKi) in assay [1] (RH7777 cells expressing LPA3) and in assay [3] (setting [11]) were 7.24 and 6.91, respectively. Moreover, the negative logarithm of the IC50 (pIC50) in assay [1] (RH7777 cells expressing LPA3) is 7.02; in assay [2] (setting [7]), under 4.52; in assay [3] (Homo sapiens, inhibition of LPA-induced Ca2+ transients, PC-3 cells, read-out: PC-3 IC50), 6.62. Also, the Emax in assay [2] (setting [12]) was found to be 58%.
`CCC=CCCCCCCCCCCOP(=O)(O)O` [Compound 5e, Phosphoric acid monotetradec-11-enyl ester]: the pEC50 in assay [1] (setting [5]) is under 4.52; in assay [2] (setting [6]) it was 5.39. Further, the pKi in assay [1] (RH7777 cells expressing LPA3) is 7.40. Besides, the pIC50 in assay [1] (RH7777 cells expressing LPA3) is 6.99; in assay [2] (setting [7]) it was under 4.52. Further, the maximum response (Emax) in assay [2] (setting [12]) amounted to 75%.
On to `CCCCCCCCCCCCCCC(F)(F)P(=O)(O)O` [Compound 11, (1,1-Difluoro-pentadecyl) Phosphonic Acid], for which the figures for the pEC50 in assay [1] (setting [5]), in assay [2] (RH7777 cells expressing LPA2) and in assay [4] (setting [8]) were under 4.52, 5.00 and under 4.52, respectively. The negative logarithm of the Ki (pKi) is 6.24 in assay [1] (RH7777 cells expressing LPA3) and 6.10 in assay [4] (inhibition of LPA-induced Ca2+ transients, RH7777 cells expressing LPA1). The negative logarithm of the IC50 (pIC50) is 5.82 in assay [1] (RH7777 cells expressing LPA3), under 4.52 in assay [2] (setting [7]) and 5.60 in assay [4] (setting [9]). The maximal effect (Emax) in assay [2] (setting [12]) was 40%. In addition, the “inhibition of LPA response at LPA1 (partial antagonism)” value in assay [4] (maximal inhibition) came out at 40%.
On to `CCCCCCCCCCCCCCOP(O)(O)=S` [Compound 8c, Thiophosphoric acid O-tetradecyl ester], for which the pEC50 in assay [1] was under 4.52; in assay [3] (Homo sapiens, PC-3, read-out: PC-3 EC50), under 4.52; in assay [4] it was under 4.52. In assay [1] (RH7777 cells expressing LPA3), the negative logarithm of the Ki (pKi) is 7.12. Besides, the pIC50 in assay [1] (RH7777 cells expressing LPA3) was 6.79; in assay [3] (setting [10]) it was under 4.52; in assay [4], under 4.52.
Regarding `CCCCCCCCCCCCOP(O)(O)=S` [Compound 8b, Thiophosphoric acid O-dodecyl ester], the negative logarithm of the EC50 (pEC50) in assay [1] and in assay [4] was under 4.52 throughout. The pKi was 7.85 in assay [1] (RH7777 cells expressing LPA3) and 5.89 in assay [3] (setting [11]). Besides, the pIC50 in assay [1] (RH7777 cells expressing LPA3) was 7.55; in assay [3] (setting [10]), 5.55; in assay [4] it was under 4.52.
Consider `CCCCCCCCCCOP(O)(O)=S` [Compound 8a, Thiophosphoric acid O-decyl ester], for which the negative-log EC50 (pEC50) in assay [1] and in assay [4] was under 4.52 throughout. The negative logarithm of the Ki (pKi) in assay [1] (RH7777 cells expressing LPA3) is 7.31; in assay [3] (setting [11]) it was 6.28. Besides, the results for the pIC50 in assay [1] (RH7777 cells expressing LPA3), in assay [3] (setting [10]) and in assay [4] were 6.91, 5.91 and under 4.52, respectively.
